Data taken from the NIST ThermoML archive (doi:10.1021/je800920d).
± gives the expanded uncertainty stated by the source.

Assays:
[1] = Molar enthalpy of transition or fusion; conditions: Crystal; DSC
[2] = Crystal; DTA

COc1ccc2cc([C@H](C)C(=O)O)ccc2c1 [(S)-(+)-naproxen]
Molar enthalpy of transition or fusion [1]: 7.5 ± 0.215 kcal/mol | Normal melting temperature [2]: 154.6 ± 0.5 °C
